Test results published in the supplement of paper PMC10307832.

Experiments:
Test in all cases: relative viability (nuclei count vs DMSO), 5 days (fraction); higher = more cells survive
[1] = compound: CCCS(=O)(=O)Nc1ccc(F)c(C(=O)c2c[nH]c3ncc(-c4ccc(Cl)cc4)cc23)c1F [Vemurafenib] + Nc1ncn([C@H]2C[C@H](O)[C@@H](CO)O2)c(=O)n1 [Decitabine] (partner 2 µM)
In short: (§1)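 Relative viability divides the nuclei count in treated wells by that in vehicle wells. Lung cancer cell lines were seeded in 1536-well plates, dosed by pin tool the next day, and fixed and stained after 5 days in one step with final 0.05% Triton X-100, 1% formaldehyde and 1 ug/ml Hoechst. Dosing was a single drug or a fixed anchor-drug dose plus five library-drug doses (not always all listed) in √10 steps, and values are medians of duplicate plates imaged at 4×.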

[2] = compound: COc1cccc2cc(-c3nc([C@H]4CC[C@H](C(=O)O)CC4)n4ncnc(N)c34)[nH]c12 [OSI-027] + CC(=O)Nc1cccc(-n2c(=O)n(C3CC3)c(=O)c3c(Nc4ccc(I)cc4F)n(C)c(=O)c(C)c32)c1 [Trametinib] (partner 0.02 µM)
In short: as §1

[3] = compound: COc1cccc2cc(-c3nc([C@H]4CC[C@H](C(=O)O)CC4)n4ncnc(N)c34)[nH]c12 [OSI-027] + CC(=O)c1c(C)c2cnc(Nc3ccc(N4CCNCC4)cn3)nc2n(C2CCCC2)c1=O [Palbociclib] (partner 0.5 µM)
In short: as §1

[4] = compound: Cc1nc(NC(=O)N2CCC[C@H]2C(N)=O)sc1-c1ccnc(C(C)(C)C(F)(F)F)c1 [Alpelisib] + CC(=O)c1c(C)c2cnc(Nc3ccc(N4CCNCC4)cn3)nc2n(C2CCCC2)c1=O [Palbociclib] (partner 0.5 µM)
In short: as §1

Cell Line	relative viability ([1]; first compound 0.03162 µM)	relative viability ([1]; first compound 0.1 µM)	relative viability ([1]; first compound 0.3162 µM)	relative viability ([1]; first compound 1 µM)	relative viability ([2]; first compound 0.01 µM)	relative viability ([2]; first compound 0.03162 µM)	relative viability ([2]; first compound 0.1 µM)	relative viability ([2]; first compound 0.3162 µM)	relative viability ([2]; first compound 1 µM)	relative viability ([3]; first compound 0.01 µM)	relative viability ([3]; first compound 0.03162 µM)	relative viability ([3]; first compound 0.1 µM)	relative viability ([3]; first compound 0.3162 µM)	relative viability ([3]; first compound 1 µM)	relative viability ([4]; first compound 0.04 µM)	relative viability ([4]; first compound 0.1265 µM)	relative viability ([4]; first compound 0.4 µM)	relative viability ([4]; first compound 1.265 µM)	relative viability ([4]; first compound 4 µM)
HCC-78	0.61	0.57	0.705	0.744	0.689	0.646	0.74	0.637	0.35	0.484	0.452	0.483	0.45	0.411	0.521	0.545	0.479	0.459	0.43
HCC-366	0.332	0.327	–	0.333	0.333	0.433	0.454	0.282	0.195	0.465	0.348	0.412	0.309	0.1	0.421	0.356	0.36	0.247	0.162
HCC-827	0.27	–	0.326	0.35	0.555	0.491	0.45	0.433	0.309	0.507	0.414	0.507	0.299	0.207	0.509	0.489	0.485	0.41	0.386
HOP-62	0.196	0.202	0.216	0.2	0.383	0.347	0.375	0.329	0.294	0.475	0.49	0.418	0.457	0.287	0.43	0.425	0.508	0.309	0.417
LC-2-ad	0.8	0.706	0.859	0.796	0.903	0.872	0.945	0.927	0.694	0.548	0.46	0.516	0.528	0.344	0.547	0.47	0.467	0.404	0.409
LCLC-97TM1	–	0.236	0.242	0.213	0.168	0.182	0.157	0.147	0.168	0.236	0.205	0.217	0.139	0.239	0.206	0.177	0.183	0.119	0.0948
LCLC-103H	0.698	0.714	0.717	0.75	0.708	0.645	0.65	0.609	0.689	0.484	0.538	0.513	0.498	0.493	0.451	0.489	0.457	0.427	0.37
LK-2	0.243	0.342	0.321	0.254	0.766	0.578	0.594	0.406	0.221	0.578	–	0.483	0.403	0.163	0.653	0.645	0.499	0.322	0.314
LOU-NH91	0.74	0.638	0.703	0.863	0.766	0.785	0.66	0.591	0.579	0.556	0.563	0.503	0.567	0.529	0.586	0.511	0.547	0.511	0.496
